Results reported in patent US12358954B2, “Capsid-modified rAAV vector compositions and methods therefor” (priority 2012, dated 2025).

Experiments:
[1] = system: pro-inflammatory cytokines and chemokines; experiment: Gene-expression analysis of innate immune response in liver by RT-PCR; assay type: in vivo, C57BL/6J mice
Procedure: Recombinant AAV Vector Transduction Studies in Vivo. Groups of 6-weeks old normal C57BL/6J mice (Jackson Laboratories, Bar Harbor, Me., USA) were administered intra-peritoneally, with a single dose (20 mg/kg) of NF-κB inhibitor Bay11, in a 200-μL volume diluted in DMSO (day 0). Animals injected with only the DMSO carrier solvent were considered as baseline (mock) group (n=75) and animals injected with Bay11 were the test group (n=75). At this point, the animals from mock and Bay11 groups were randomized to receive either phosphate buffered saline (PBS, pH 7.4) or WT-AAV or TM-AAV vectors (n=25 mice each group). On day 1, ˜1×10^11 viral genome (vg) particles of WT-AAV2-EGFP or TM-AAV2-EGFP vectors or PBS were administered intravenously via the tail vein. To measure the modulation of immune response to AAV, 5 animals each from PBS-, WT-AAV-, or TM-AAV vector-injected groups were sacrificed by carbon-dioxide inhalation at different time points post-vector administration (2, 6, 10, 24 hrs and day 10). Hepatic lobes were collected, cross-sectioned and mounted on slides to study the effect of Bay11 on AAV-mediated EGFP expression (from day 10 mice). […]
Gene-Expression Analysis of Innate Immune Response by RT-PCR Assay. […] Data were captured and analyzed using an ABI Prism 7500 Sequence Detection System with v1.1 Software (Applied Biosystems). The baseline was determined automatically for the 18S rRNA and for other genes. Thresholds were determined manually for all genes. Gene expression was measured by the comparative threshold cycle (Ct) method. The parameter threshold cycle (Ct) was defined as the cycle number at which the reporter fluorescence generated by the cleavage of the probe passed a fixed threshold above baseline. […] Relative gene expression was determined for each group of treated and untreated animals and values >2.6 and <0.38 were considered as significant up-regulations and down-regulations between the groups and was calculated by assessing the variability in the 96 well plates used to measure specific gene expression.

[2] = system: primary human dendritic cells; experiment: AAV-EGFP transduction of primary human dendritic cells with NF-κB modulators (flow cytometry); assay type: cell-based; conditions: scAAV-transduced DCs treated with cytokines; Bay11 row: cytokines plus Bay11
Procedure: Recombinant AAV Vector Transduction Assays in Vitro. Optimal concentration of NF-κB-modulating compounds was determined by a cell viability assay with tenfold-dilutions from the IC50 or were used as described previously (Wu and Miyamoto, 2008; Kumar et al., 2008). VP16 or Bay11 (10 or 5 μM, final concentration), and PDTC (50 or 25 μM final concentration) were used either alone or in activator/inhibitor combinations. For transduction experiments, approximately 1×10^5 HeLa cells were either pre-treated with these compounds 24 hrs prior to vector infection. Cells were transduced with 500 or 2,000 vector genomes (vgs) per cell of recombinant WT-AAV or TM-AAV vectors encoding the EGFP transgene as described previously (Markusic et al., 2010). After 7 days of culture, primary human dendritic cells were transduced with AAV vectors at 2000 vgs/cell and incubated for 48 hrs. Transgene expression was assessed as total area of green fluorescence (pixel^2) per visual field (mean±SD), or by flow cytometry. Analysis of variance (ANOVA) was used to compare between test results and the control and they were determined to be statistically significant.
Cells, Antibodies and Chemicals. […]

anti-AAV2 IgG2a = experiment: Anti-AAV2 IgG2a levels in peripheral blood; assay type: in vivo, mice; conditions: day 10
Procedure: Anti-AAV2 IgG2a levels were determined in peripheral blood from mice at day 10 following injections with scAAV vectors, with and without prior administration of Bay11 (n=4 each);
Inhibition of NF-κB Activation Leads to Suppression of Pro-Inflammatory Cytokine Production Prior to AAV Vector-Mediated Gene Transfer in Mice in Vivo. In in vivo studies, a single dose of Bay11 at 20 mg/kg body weight was administered intra-peritoneally (i.p.) 12 hrs prior to vector administration in C57BL/6 mice. Transcript levels from liver homogenates of innate immune mediators (FIG. 3A) or for activation of NF-κB (FIG. 3B) genes were measured from Bay11- and vector-injected groups and compared with sham-injected mice. […] The up-regulation of type I interferon expression by both wild-type (WT-AAV) and TM-AAV vectors was unaffected by Bay11 (FIG. 8A, FIG. 8B, FIG. 8C, FIG. 8D, FIG. 8E, and FIG. 8F).

## Cc1ccc(S(=O)(=O)/C=C/C#N)cc1 [Bay11, Bay11-7082]
[1]; Bay11 20 mg/kg i.p. 12 hrs prior to vector, 2 hrs post-vector
  levels of pro-inflammatory cytokines or chemokines (IL-1α, IL-6, TNFα, IL-12α, KC, RANTES) in liver: significantly reduced
[1]; Bay11 prior to gene transfer, C57BL/6 mice
  decrease in AAV vector-induced production of pro-inflammatory cytokines and chemokines: up to 7 fold
[1]; mouse, in vivo
  up-regulation of type I interferon expression by WT-AAV and TM-AAV vectors: unaffected
[2]
  transgene expression in DCs: ~12%
anti-AAV2 IgG2a
  anti-AAV2 antibody response: significantly reduced
